Patent US4072760A, “Bronchospasmolytic phenylethanolamines” (Pharmacia AS, priority 1974, dated 1978)
Read-outs that look alike come from different tables or passages of the source.

Tests used:
[1] = system: β2 -stimulation, lungs guinea pig; test: Bronchospasmolytic effect (β2 -stimulation), Konzett-Rossler technique in anaesthetized guinea pig lungs; format: in vivo; details: Cavia porcellus, doses as free base of the racemic compound
[2] = in vivo; details: mouse
Source text: Furthermore the acute toxicity in mice after intraveneous and oral administration is given.

[3] = system: β1 -stimulation, heart rate mice; test: Heart rate increasing effect (β1 -stimulation) in pentobarbital anaesthetized mice; format: in vivo; details: Mus musculus, iv, dose giving an increase in heart rate of 100 beats/min, as free base
Experimental: An especially valuable feature of the present invention is that typical and preferred representative of the compounds of the invention show a high bronchial selectivity (ratio of bronchospasmolytic activity to heart rate increasing effect) as compared to existing well-known broncholytics. […] The ratio, heart rate increasing dose ("ED 100") divided by bronchospasmolytic dose (ED 50), is a measure of the degree of selectivity of the bronchospasmolytic action. This ratio was calculated for a number of the compounds of the invention and for some of the most relevant compounds of reference.

[4] = system: β2 -stimulation versus β1 -stimulation; test: Bronchial selectivity: heart rate increasing dose ("ED 100") divided by bronchospasmolytic dose (ED 50); format: in vivo; details: heart rate ED 100 (mice, i.v.) / bronchospasmolytic ED 50 (guinea pig, i.v.)
Experimental: The ratio, heart rate increasing dose ("ED 100") divided by bronchospasmolytic dose (ED 50), is a measure of the degree of selectivity of the bronchospasmolytic action. This ratio was calculated for a number of the compounds of the invention and for some of the most relevant compounds of reference.

[5] = system: conscious guinea pigs; test: Bronchospasmolytic dose in conscious guinea pigs, acetylcholine aerosol as spasmogen (Wardell); format: in vivo; details: pressurized aerosol of 1% acetylcholine, more active than salbutamol
Experimental: (§1) The effective bronchospasmolytic doses of the two compounds were determined using a pressurized aerosol of a 1% acetylcholine solution as the spasmogen according to the method of […]. Pharmacol Exp. Therap. 1974, 189, 167-184 and the heart rate was determined according to Farmer et al. (Br. J. Pharmac. Chemotherap. 1968, 32, 193-200.

[6] = system: conscious guinea pigs; test: Heart rate in conscious guinea pigs (Farmer et al.); format: in vivo
Experimental: as §1

[7] = system: β-stimulation of the skeletal muscles; test: Tremor-inducing activity (β-stimulation of the skeletal muscles) compared to bronchospasmolytic activity in cats (Bowman and Nott); format: in vivo
Experimental: For a few of the compounds of the invention, the tremor-inducing activity (β-stimulation of the skeletal muscles) was determined in cats (in accordance with the technique of Bowman, W. C. and Nott, M. W.: Actions of some sympathomimetic bronchodilator and beta-adrenoceptor blocking drugs on contractions of the cat soleus muscle, Brit. J. Pharmac., 1970, 38, 37-49) and compared to the bronchospasmolytic activity in the same species.

[8] = system: dogs; details: dog, in vivo
Source text: (§2) Compounds of the present invention are well tolerated, as appears from the table.

[9] = set-up: species or system rate; details: in vivo
Source text: as §2

[10] = iv, read-out: β2 -stimulation lungs guinea pig ED 50 i.v.
[11] = i.d. = intraduodenally, read-out: β2 -stimulation lungs guinea pig ED 50 i.d.

Row | Compound | ED50 [1, 10] | LD50 ([2]; iv) | LD50 ([2]; po) | ED50 [1, 11] | ED (increase of 100 beats/min) [3] | Ratio "ED 100"/ED 50 [4] | broncholytic activity relative to salbutamol [5] | heart rate stimulating effect compared with salbutamol [6] | ratio between bronchospasmolytic dose and tremor-inducing dose, compared with salbutamol [7] | acute intravenous and oral toxicity test: tolerability [8] | two week tolerance test in dogs: tolerability [8] | three month toxicity test: toxic reactions [9]
1 | CC(C)(C)NCC(O)c1ccc(O)c(NC(=O)c2ccc(Cl)c(Cl)c2)c1.Cl (stereo not drawn) [3-(3,4-Dichlorobenzamido)-4-hydroxy-α-(tert.butylaminomethyl)benzylalcohol hydrochloride] | 0.1 mg/kg | 60 mg/kg | > 2000 mg/kg | – | – | – | – | – | – | – | – | –
2 | COc1ccc(CNc2cc(C(O)CNC(C)(C)C)ccc2O)cc1OC.Cl (stereo not drawn) [3-(3,4-Dimethoxybenzylamino)-4-hydroxy-α-(tert.butylaminomethyl)benzylalcohol hydrochloride] | 0.01 mg/kg | 20 mg/kg | > 2000 mg/kg | 10 mg/kg | 0.09 mg/kg | 9 | – | – | – | – | – | –
3 | CC(C)(C)NCC(O)c1ccc(O)c(NC(=O)c2cc(O)cc(O)c2)c1.Cl (stereo not drawn) [3-(3,5-Dihydroxybenzamido)-4-hydroxy-α-(tert.butylaminomethyl)-benzylalcohol hydrochloride] | 0.3 mg/kg | 20 mg/kg | > 2000 mg/kg | 20 mg/kg | – | – | – | – | – | – | – | –
4 | COc1c(C)cc(CNc2cc(C(O)CNC(C)(C)C)ccc2O)cc1C.Cl (stereo not drawn) [3-(3,5-Dimethyl-4-methoxybenzylamino)-4-hydroxy-α-(tert.butylaminomethyl)benzylalcohol hydrochloride] | 0.03 mg/kg | 20 mg/kg | 1500 mg/kg | 3 mg/kg | 0.3 mg/kg | 10 | – | – | – | – | – | –
5 | COc1cc(CNc2cc(C(O)CNC(C)(C)C)ccc2O)ccc1O.Cl (stereo not drawn) [3-(3-Methoxy-4-hydroxybenzylamino)-4-hydroxy-α-(tert.butylaminomethyl)-benzylalcohol hydrochloride] | 0.02 mg/kg | 10 to 30 mg/kg | > 2000 mg/kg | – | 0.05 mg/kg | 2.5 | – | – | – | – | – | –
6 | CC(C)(C)NCC(O)c1ccc(O)c(NC(=O)c2cccc([N+](=O)[O-])c2)c1.Cl (stereo not drawn) [3-(3-Nitrobenzamido)-4-hydroxy-α-(tert.butylaminomethyl)benzylalcohol hydrochloride] | 0.3 mg/kg | 60 mg/kg | > 2000 mg/kg | – | – | – | – | – | – | – | – | –
7 | CC(C)(C)NCC(O)c1ccc(O)c(NCc2cccc(O)c2)c1 (stereo not drawn) [3-(3-hydroxybenzylamino)-4-hydroxy-α-(tert.butylaminomethyl) benzylalcohol] | 0.01 mg/kg | 20 mg/kg | ≥ 2000 mg/kg | 10 mg/kg | 0.025 mg/kg | 2.5 | – | – | – | – | – | –
8 | CC(C)(C)NCC(O)c1ccc(O)c(NC(=O)c2ccc(Cl)cc2)c1.Cl (stereo not drawn) [3-(4-Chlorobenzamido)-4-hydroxy-α-(tert.butylaminomethyl)benzylalcohol hydrochloride] | 0.5 mg/kg | 60 mg/kg | > 2000 mg/kg | – | – | – | – | – | – | – | – | –
9 | CN(C)c1ccc(CNc2cc(C(O)CNC(C)(C)C)ccc2O)cc1.Cl (stereo not drawn) [3-(4-Dimethylaminobenzylamino)-4-hydroxy-α-(tert.butylaminomethyl)benzylalcohol hydrochloride] | 0.02 mg/kg | 20 mg/kg | 700 mg/kg | – | ≥ 0.1 mg/kg | ≥ 5 | – | – | – | – | – | –
10 | CCOc1ccc(CNc2cc(C(O)CNC(C)(C)C)ccc2O)cc1.Cl (stereo not drawn) [3-(4-Ethoxybenzylamino)-4-hydroxy-α-(tert.butylaminomethyl)benzylalcohol hydrochloride] | 0.01 mg/kg | 20 mg/kg | 400 mg/kg | 5 mg/kg | 0.1 mg/kg | 10 | – | – | – | – | – | –
11 | CC(C)(C)NCC(O)c1ccc(O)c(NCc2ccc(O)cc2)c1.Cl (stereo not drawn) [3-(4-Hydroxybenzylamino)-4-hydroxy-α-(tert.butylaminomethyl)benzylalcohol hydrochloride] | 0.01 mg/kg | 20 mg/kg | > 2000 mg/kg | 10 mg/kg | 0.07 mg/kg | 7 | – | – | – | – | – | –
12 | CC(C)Oc1ccc(CNc2cc(C(O)CNC(C)(C)C)ccc2O)cc1.Cl (stereo not drawn) [3-(4-Isopropoxybenzylamino)-4-hydroxy-α-(tert.butylaminomethyl)-benzylalcohol hydrochloride] | 0.03 mg/kg | 20 mg/kg | 400 mg/kg | – | 0.1 mg/kg | 3.3 | – | – | – | – | – | –
13 | COc1ccc(CNc2cc(C(O)CNC(C)(C)C)ccc2O)cc1.Cl (stereo not drawn) [3-(4-Methoxybenzylamino)-4-hydroxy-α-(tert.butylaminomethyl)-benzylalcohol hydrochloride] | 0.003 mg/kg | 20 mg/kg | 300 mg/kg | 1 mg/kg | 0.1 mg/kg | 33 | 10 times | the heart rate stimulating effect was the same | a better ratio than salbutamol | good tolerability | good tolerability | no toxic reactions
14 | Cc1ccc(CNc2cc(C(O)CNC(C)(C)C)ccc2O)cc1.Cl (stereo not drawn) [3-(4-Methylbenzylamino)-4-hydroxy-α-(tert.butylaminomethyl)benzylalcohol hydrochloride] | 0.07 mg/kg | 20 mg/kg | 700 mg/kg | – | – | – | – | – | – | – | – | –
15 | CC(C)(C)NCC(O)c1ccc(O)c(NCc2ccc([N+](=O)[O-])cc2)c1.Cl (stereo not drawn) [3-(4-Nitrobenzylamino)-4-hydroxy-α-(tert.butylaminomethyl)-benzylalcohol hydrochloride] | 0.01 mg/kg | 60 mg/kg | 400 mg/kg | 0.5 mg/kg | 0.1 mg/kg | 10 | – | – | – | – | – | –
16 | COc1ccc(C(=O)Nc2cc(C(O)CNC(C)(C)C)ccc2O)cc1.Cl (stereo not drawn) [3-(4-methoxybenzamido)-4-hydroxy-α-(tert.butylaminomethyl)benzylalcohol hydrochloride] | 0.1 mg/kg | 80 mg/kg | > 2000 mg/kg | 10 mg/kg | > 1 mg/kg | > 10 | – | – | the same ratio between bronchospasmolytic dose and tremor-inducing dose as salbutamol | – | – | –
17 | CC(C)(C)NCC(O)c1ccc(O)c(NC(=O)c2ccc([N+](=O)[O-])cc2)c1.Cl (stereo not drawn) [3-(4-nitrobenzamido)-4-hydroxy-α-(tert.butylaminomethyl)benzylalcohol hydrochloride] | 0.1 mg/kg | 40 mg/kg | > 2000 mg/kg | 10 mg/kg | > 1 mg/kg | > 10 | – | – | – | – | – | –
18 | COCCOc1ccc(CNc2cc(C(O)CNC(C)(C)C)ccc2O)cc1.Cl (stereo not drawn) [3-[4-(2-Methoxyethoxy)benzylamino]-4-hydroxy-α-(tert.butylaminomethyl)-benzylalcohol hydrochloride] | 0.01 mg/kg | 20 mg/kg | > 1000 mg/kg | 1 mg/kg | 0.1 mg/kg | 10 | – | – | – | – | – | –
19 | CC(C)(C)NCC(O)c1ccc(O)c(NCc2ccc(OCC(N)=O)cc2)c1 (stereo not drawn) [3-[4-(carbamoylmethoxy)benzylamino]-4-hydroxy-α-(tert.butylaminomethyl)benzylalcohol] | 0.01 mg/kg | 20 mg/kg | > 1000 mg/kg | 10 mg/kg | 0.1 mg/kg | 10 | – | – | – | – | – | –
20 | CC(C)NCC(O)c1ccc(O)c(O)c1 (centres unmarked) [Isoprenaline, reference compound] | 0.005 mg/kg | – | – | – | 0.0003 mg/kg | – | – | – | – | – | – | –
21 | CC(C)NCC(O)c1cc(O)cc(O)c1 (centres unmarked) [Orciprenaline, reference compound] | 0.1 mg/kg | – | – | – | 0.01 mg/kg | – | – | – | – | – | – | –
22 | CC(C)(C)NCC(O)c1ccc(O)c(CO)c1 (centres unmarked) [Saloutamol, salbutamol, reference compound] | 0.01 mg/kg | – | – | 5 mg/kg | 0.1 mg/kg | – | – | – | – | – | – | –
23 | CC(C)NCC(O)c1ccc(O)c(NS(C)(=O)=O)c1 (centres unmarked) [Soterenol, reference compound] | 0.02 mg/kg | 60 mg/kg | 750 mg/kg | – | 0.04 mg/kg | 2 | – | – | – | – | – | –
24 | CC(C)(C)NCC(O)c1cc(O)cc(O)c1 (centres unmarked) [Terbutaline, reference compound] | 0.03 mg/kg | 40 mg/kg | > 2000 mg/kg | 10 mg/kg | 0.3 mg/kg | 10 | – | – | – | – | – | –
